Source: ChEMBL document CHEMBL6109117, “Synthesis of an RBM39 Degrader That Downregulates CEP192 and Induces Disorganized Spindle Structures” (J Med Chem, 2025)
Calls of active or inactive are those of the source. The rule behind the calls is not given here.

What was measured:
K562 [1] = experiment: Induction of spliceosome function impairment in human K562 cells assessed as decrease in ZNF207 transcript at 1 to 10 uM incubated for 12 hrs by qRT-PCR analysis; format: functional, cell-based; conditions: dose 1-10 µM
HCT-116 [2] = experiment: Induction of apoptosis in human HCT-116 cells assessed as change in PARP level at 0.1 to 5 uM incubated for 48 hrs by Western blot analysis; format: functional, cell-based; conditions: dose 0.1-5 µM
HCT-116 [3] = experiment: Induction of RBM39 degradation in human HCT-116 cells at 1 uM incubated for 24 hrs by mass spectrometry-based proteomic analysis; format: cell-based
MV4-11 [4] = experiment: Induction of spliceosome function impairment in human MV4-11 cells assessed as decrease in PRPF38A transcript at 1 to 10 uM incubated for 12 hrs by qRT-PCR analysis; format: functional, cell-based; conditions: dose 1-10 µM
HCT-116 [5] = experiment: Effect on RNA splicing in human HCT-116 cells assessed as RTTN gene retention of intron at 2 uM incubated for 12 hrs by RNA-seq analysis; format: functional, cell-based
K562 [6] = experiment: Effect on RNA splicing in human K562 cells assessed as ESPL1 gene skipping exon at 2 uM incubated for 12 hrs by RNA-seq analysis; format: functional, cell-based
HCT-116 [7] = experiment: Induction of cell cycle arrest in human HCT-116 cells assessed as accumulation at G2/M phase at 0.1 to 5 uM incubated for 48 hrs by PI staining based flow cytometry; format: functional; conditions: dose 0.1-5 µM
HCT-116 [8] = experiment: Induction of RBM39 degradation in human HCT-116 cells assessed as fold change at 0.1 uM incubated for 24 hrs by Western blot analysis relative to control; format: cell-based
HCT-116 [9] = experiment: Induction of cell cycle arrest in human HCT-116 cells assessed as accumulation at G2/M phase at 1 uM by PI staining based flow cytometry; format: functional
K562 [10] = experiment: Induction of spliceosome function impairment in human K562 cells assessed as decrease in PRPF38A transcript at 1 to 10 uM incubated for 12 hrs by qRT-PCR analysis; format: functional, cell-based; conditions: dose 1-10 µM
K562 [11] = experiment: Effect on RNA splicing in human K562 cells assessed as CEP192 gene skipping exons up to 10 uM by PCR analysis; format: functional, cell-based; conditions: time 1-24 hrs
HCT-116 [12] = experiment: Induction of RBM39 degradation in human HCT-116 cells at 3 to 300 nM incubated for 24 hrs in presence of MLN4924 by Western blot analysis; format: cell-based; conditions: dose 3-300 nM
HCT-116 [13] = experiment: Effect on RNA splicing in human HCT-116 cells assessed as ESPL1 gene exon splicing at 2 uM incubated for 12 hrs by RNA-seq analysis; format: functional, cell-based
[14] = Effect on RNA splicing in human HCT-116 cells assessed as number of alternative 5' splice sites at 2 uM incubated for 12 hrs by RNA-seq analysis; format: functional
MV4-11 [15] = experiment: Induction of spliceosome function impairment in human MV4-11 cells assessed as increase in NCKAP1L RI transcript incubated for 12 hrs by qRT-PCR analysis; format: functional, cell-based; conditions: dose 1-10 µM
HCT-116 [16] = experiment: Induction of spliceosome function impairment in human HCT-116 cells assessed as increase in CUL4A RI transcript at 1 to 10 uM incubated for 12 hrs by qRT-PCR analysis; format: functional, cell-based; conditions: dose 1-10 µM
HCT-116 [17] = experiment: Effect on RNA splicing in human HCT-116 cells assessed as ESPL1 gene alternative 5' splice site at 2 uM incubated for 12 hrs by RNA-seq analysis; format: functional, cell-based
K562 [18] = experiment: Effect on RNA splicing in human K562 cells assessed as CEP192 gene retention of introns up to 10 uM by PCR analysis; format: functional, cell-based; conditions: time 1-24 hrs
HCT-116 [19] = experiment: Effect on mitosis in human HCT-116 cells assessed as disorganized spindle phenotype at 1 uM incubated for 48 hrs by immunofluorescence based analysis; format: functional, cell-based
HCT-116 [20] = experiment: Downregulation of CENPI expression in human HCT-116 cells incubated for 24 hrs by Western blot analysis; format: functional, cell-based
HCT-116 [21] = experiment: Induction of spliceosome function impairment in human HCT-116 cells assessed as fold increase in PRPF38A RI transcript at 1 to 10 uM incubated for 12 hrs by qRT-PCR analysis relative to control; format: functional; conditions: dose 1-10 µM
MOLM-13 [22] = experiment: Effect on RNA splicing in human MOLM-13 cells assessed as CEP192 gene skipping exons incubated for 12 hrs by PCR analysis; format: functional, cell-based; conditions: dose 0.1-10 µM
[23] = Effect on RNA splicing in human K562 cells assessed as alternative 3' splice sites at 2 uM incubated for 12 hrs by RNA-seq analysis relative to control; format: functional
HCT-116 [24] = experiment: Effect on RNA splicing in human HCT-116 cells assessed as CEP192 gene skipping exons at 2 uM incubated for 12 hrs by RNA-seq analysis; format: functional, cell-based
CEM/C1 = experiment: Induction of RBM39 degradation in human CEM/C1 cells incubated for 24 hrs by Western blot analysis; format: cell-based
MV4-11 [25] = experiment: Effect on RNA splicing in human MV4-11 cells assessed as CEP192 gene skipping exons incubated for 12 hrs by PCR analysis; format: functional, cell-based; conditions: dose 0.1-10 µM
[26] = Effect on RNA splicing in human K562 cells assessed as skipping exons at 2 uM incubated for 12 hrs by RNA-seq analysis relative to control; format: functional
HCT-116 [27] = experiment: Effect on RNA splicing in human HCT-116 cells assessed as CEP192 gene retention of introns up to 10 uM by PCR analysis; format: functional, cell-based; conditions: time 1-24 hrs
HCT-116 [28] = experiment: Induction of cell cycle arrest in human HCT-116 cells assessed as accumulation at G2/M phase at 1 uM incubated for 48 hrs by PI staining based flow cytometry relative to control; format: functional
HCT-116 [29] = experiment: Induction of RBM39 degradation in human HCT-116 cells at 1 uM incubated for 3 to 6 hrs by Western blot analysis; format: cell-based; conditions: time 3-6 hrs
K562 [30] = experiment: Effect on RNA splicing in human K562 cells assessed as CEP192 gene skipping exons incubated for 12 hrs by PCR analysis; format: functional, cell-based; conditions: dose 0.1-10 µM
MOLM-13 [31] = experiment: Effect on RNA splicing in human MOLM-13 cells assessed as CEP192 gene retention of introns incubated for 12 hrs by PCR analysis; format: functional, cell-based; conditions: dose 0.1-10 µM
HCT-116 [32] = experiment: Induction of spliceosome function impairment in human HCT-116 cells assessed as fold increase in CUL4A RI transcript at 1 to 10 uM incubated for 12 hrs by qRT-PCR analysis relative to control; format: functional; conditions: dose 1-10 µM
HL-60 = experiment: Antiproliferative activity against human HL-60 cells assessed as inhibition of cell growth incubated for 4 days by CCK8 assay; format: functional, cell-based; conditions: time 4.0 day
[33] = Effect on RNA splicing in human K562 cells assessed as alternative 5' splice sites at 2 uM incubated for 12 hrs by RNA-seq analysis relative to control; format: functional
RS4-11 [34] = experiment: Effect on RNA splicing in human RS4;11 cells assessed as CEP192 gene skipping exons incubated for 12 hrs by PCR analysis; format: functional, cell-based; conditions: dose 0.1-10 µM
RS4-11 [35] = experiment: Effect on RNA splicing in human RS4;11 cells assessed as CEP192 gene retention of introns incubated for 12 hrs by PCR analysis; format: functional, cell-based; conditions: dose 0.1-10 µM
[36] = Effect on RNA splicing in human K562 cells assessed as number of skipping exons at 2 uM incubated for 12 hrs by RNA-seq analysis; format: functional
MV4-11 [37] = experiment: Effect on RNA splicing in human MV4-11 cells assessed as CEP192 gene retention of introns incubated for 12 hrs by PCR analysis; format: functional, cell-based; conditions: dose 0.1-10 µM

Compound	Activity (K562 [1])	Activity (HCT-116 [2])	Activity (HCT-116 [3])	Activity (MV4-11 [4])	Activity (HCT-116 [5])	Activity (K562 [6])	Activity (HCT-116 [7])	fold change (FC) (HCT-116 [8])	Activity (HCT-116 [9])	Activity (K562 [10])	Activity (K562 [11])	Activity (HCT-116 [12])	Activity (HCT-116 [13])	Activity [14]	Activity (MV4-11 [15])	Activity (HCT-116 [17])	Activity (K562 [18])	Activity (HCT-116 [19])	Activity (HCT-116 [20])	further results
NS(=O)(=O)c1ccc(S(=O)(=O)Nc2cccc3c(Cl)c[nH]c23)cc1 [INDISULAM]	Active	inactive	Active	Active	Active	Active	Active	0.59	Time-dependent-effect	Active	Time-dependent-effect; Observed Skipping Exons 42 And 28	inactive	Active	389	Active	Active	Time-dependent-effect; Observed Retention Of Introns Between Exons 27 And 28	Active; Disorganized Spindle Phenotype Was Characterized By Random Microtubule Distribution Surrounding Condensed And Undivided Chromosomes	Dose-dependent-effect	Activity (HCT-116 [16]): Active
Cc1ccc(NS(=O)(=O)c2cccc(NC(=O)C(=O)N3CCC[C@@H]3CO)c2)c2[nH]cc(C#N)c12	Active	inactive	Active	Active	Active	Active	Active	0.61	Time-dependent-effect	Active	Time-dependent-effect; Observed Skipping Exons 42 And 28	inactive	Active	329	Active	Active	Time-dependent-effect; Observed Retention Of Introns Between Exons 27 And 28	Active; Disorganized Spindle Phenotype Was Characterized By Random Microtubule Distribution Surrounding Condensed And Undivided Chromosomes	Dose-dependent-effect	fold change (FC) (HCT-116 [21]): 3; Activity (MOLM-13 [22]): Dose-dependent-effect; Observed Skipping Of Exons 42, 28 And 13; Activity [23]: 7.1%; Activity (HCT-116 [24]): Active; Observed Skipping Of Exons 42, 28 And 13; Activity (CEM/C1): Dose-dependent-effect; Activity (MV4-11 [25]): Dose-dependent-effect; Observed Skipping Of Exons 42, 28 And 13; Activity [26]: 70.6%; Activity (HCT-116 [27]): Time-dependent-effect; Observed Retention Of Introns Between Exons 27 And 28; Activity (HCT-116 [28]): 58%; Activity (HCT-116 [29]): Active; Compound Exhibited Its Efficiency Steadily Increasing From 3 To 48 Hrs; Activity (K562 [30]): Dose-dependent-effect; Observed Skipping Of Exons 42, 28 And 13; Activity (MOLM-13 [31]): Dose-dependent-effect; Observed Retention Of Introns Between Exons 27 And 28; fold change (FC) (HCT-116 [32]): 3; inhibition (HL-60): Active; Activity [33]: 3.6%; Activity (RS4-11 [34]): Dose-dependent-effect; Observed Skipping Of Exons 42, 28 And 13; Activity (RS4-11 [35]): Dose-dependent-effect; Observed Retention Of Introns Between Exons 27 And 28; Activity [36]: 12285; Activity (MV4-11 [37]): Dose-dependent-effect; Observed Retention Of Introns Between Exons 27 And 28
